Assay results reported in patent publication US20080261207A1, “Method of Measuring Cancer Susceptibility” (priority 2004, published 2008).

Tested on: p21 mRNA
Test: Radiation-induced p21 mRNA induction in heparinized whole blood incubated with dietary supplements (FIG. 5)
Format: cell-based, human
Conditions: heparinized whole blood of a single individual, EGC 10 μM, rLA 10 μg/mL, Cur 1 μM; for radiation-induced p21 expression: 1 hour at 37° C. with supplement, 1 Gy ionizing radiation, another 2 hours at 37° C.; for p21 levels on control blood (no radiation) / background p21 levels: incubated with supplement at 37° C., without radiation
Protocol: The protocol for measuring mRNA levels employed in this example was as follows. The assay procedure consists of 3 major steps: 1) leukocyte isolation and lysis on filterplates, 2) mRNA isolation, reverse primer hybridization, and cDNA synthesis in oligo(dT)-immobilized microplates, and 3) real time quantitative PCR. In brief, filterplates were placed over collection plates, and 150 μL 5 mmol/L Tris, pH 7.4, was applied to wet the filter membranes. Following centrifugation at 120×g for 1 min at 4° C. to remove solution from the filterplates, 50 μL of well-mixed blood samples were applied to each well and immediately centrifuged at 120×g for 2 min at 4° C., followed by washing of each well with 300 μL phosphate buffered saline (PBS) once with centrifugation at 2000×g for 5 min at 4° C. Then, 60 μL stock lysis buffer (see below), supplemented with 1% 2-mercaptoethanol (Bio Rad), 0.5 mg/mL proteinase K (Pierce), 0.1 mg/mL salmon sperm DNA (5 Prime Eppendorf/Brinkmann), 0.1 mg/mL E. coli tRNA (Sigma), […] each of specific reverse primers, and 10^7 molecules/mL of synthetic RNA34 as an internal standard, were applied to the filterplates, followed by incubation at 37° C. for 10 min. The filterplates were then placed over oligo(dT)-immobilized microplates (GenePlate, RNAture), and centrifuged at 2000×g for 5 min at 4° C. Following overnight storage at 4° C., the microplates were washed with 100 μL plain lysis buffer 3 times, and then with 150 μL wash buffer (0.5 mol/L NaCl, 10 mmol/L Tris, pH 7.4, 1 mmol/L EDTA) 3 times at 4° C. The cDNA was directly synthesized in each well by adding 30 μL buffer containing 1×RT-buffer (50 mmol/L KCl, 10 mmol/L Tris-HCl, pH 8.3, 5.5 mmol/L MgCl2, no dithiothreitol), 1.25 mmol/L each of dNTP, 4 units rRNasin, and 80 units of MMLV reverse transcriptase (Promega) (without primers), and incubation at 37° C. for 2 hours. The resultant 4 μL cDNA was directly transferred to 384-well PCR plates, to which 5 μL TaqMan universal master mix (Applied Biosystems) and 1 μL oligonucleotide cocktail (15 μmol/L each of forward and reverse primer, and 3-6 μmol/L TaqMan probe) were applied, and PCR was conducted in a PRISM 7900HT (Applied Biosystems), with one cycle of 95° C. for 10 min followed by 45 cycles of 95° C. for 30 sec, 55° C. for 30 sec, and 60° C. for 1 min. Each gene was amplified in separate wells. The cycle threshold (Ct), which was the cycle of PCR to generate certain amounts of PCR products (fluorescence), was determined using analytical software (SDS, Applied Biosystems). PCR was also conducted directly in the GenePlate using an iCycler (BioRad). […] First, heparinized whole blood was incubated with various dietary supplements at 37° C. for 1 hour (2 tubes for each compound). Then one tube was exposed to 1 Gy of ionizing radiation, then both tubes were incubated for another 2 hours at 37° C. The p21 mRNA was quantitated as described above. […] In FIG. 5, each data point is the mean ±standard deviation of p21 mRNA with ([…]) or without (◯) 1 Gy radiation. […] Data points surrounded by a circle indicate p<0.05.

For `COc1cc(/C=C/C(=O)CC(=O)/C=C/c2ccc(O)c(OC)c2)ccc1O` [curcumin], the “radiation-induced p21 expression” value was “enhanced” and the “p21 levels on control blood (no radiation) / background p21 levels” value was “increased”.
For `O=C(O[C@@H]1Cc2c(O)cc(O)cc2O[C@@H]1c1cc(O)c(O)c(O)c1)c1cc(O)c(O)c(O)c1` [epigallocatechin gallate], the “radiation-induced p21 expression” value was “significantly enhanced” and the “p21 levels on control blood (no radiation) / background p21 levels” value was “did not show any changes”.
`CCCCC/C=C\C/C=C\C/C=C\CCCCC(=O)O` [γ-linoleic acid] was tested, and the “radiation-induced p21 expression” value was “enhanced” and the “p21 levels on control blood (no radiation) / background p21 levels” value was “increased”.
